Assay results as given in patent US20200361895A1, “NOVEL SULFONAMIDE CARBOXAMIDE COMPOUNDS” (Inflazome Limited, priority 2017, published 2020).
Where a name gives a salt, the structure may show the parent alone.

Assays:
[1] = target: T1, NLRP3 (Homo sapiens, UniProt Q96P20); test: Human whole blood IL1β release assay (LPS + nigericin, AlphaLisa IL-1β; HWB IC50); type: cell-based; set-up: Human whole blood in Li-heparin tubes was obtained from healthy donors from a volunteer donor panel; from tissue; host or cells: human whole blood from healthy donors; details: IL-1β release
T1 sequence (Q96P20 whole entry): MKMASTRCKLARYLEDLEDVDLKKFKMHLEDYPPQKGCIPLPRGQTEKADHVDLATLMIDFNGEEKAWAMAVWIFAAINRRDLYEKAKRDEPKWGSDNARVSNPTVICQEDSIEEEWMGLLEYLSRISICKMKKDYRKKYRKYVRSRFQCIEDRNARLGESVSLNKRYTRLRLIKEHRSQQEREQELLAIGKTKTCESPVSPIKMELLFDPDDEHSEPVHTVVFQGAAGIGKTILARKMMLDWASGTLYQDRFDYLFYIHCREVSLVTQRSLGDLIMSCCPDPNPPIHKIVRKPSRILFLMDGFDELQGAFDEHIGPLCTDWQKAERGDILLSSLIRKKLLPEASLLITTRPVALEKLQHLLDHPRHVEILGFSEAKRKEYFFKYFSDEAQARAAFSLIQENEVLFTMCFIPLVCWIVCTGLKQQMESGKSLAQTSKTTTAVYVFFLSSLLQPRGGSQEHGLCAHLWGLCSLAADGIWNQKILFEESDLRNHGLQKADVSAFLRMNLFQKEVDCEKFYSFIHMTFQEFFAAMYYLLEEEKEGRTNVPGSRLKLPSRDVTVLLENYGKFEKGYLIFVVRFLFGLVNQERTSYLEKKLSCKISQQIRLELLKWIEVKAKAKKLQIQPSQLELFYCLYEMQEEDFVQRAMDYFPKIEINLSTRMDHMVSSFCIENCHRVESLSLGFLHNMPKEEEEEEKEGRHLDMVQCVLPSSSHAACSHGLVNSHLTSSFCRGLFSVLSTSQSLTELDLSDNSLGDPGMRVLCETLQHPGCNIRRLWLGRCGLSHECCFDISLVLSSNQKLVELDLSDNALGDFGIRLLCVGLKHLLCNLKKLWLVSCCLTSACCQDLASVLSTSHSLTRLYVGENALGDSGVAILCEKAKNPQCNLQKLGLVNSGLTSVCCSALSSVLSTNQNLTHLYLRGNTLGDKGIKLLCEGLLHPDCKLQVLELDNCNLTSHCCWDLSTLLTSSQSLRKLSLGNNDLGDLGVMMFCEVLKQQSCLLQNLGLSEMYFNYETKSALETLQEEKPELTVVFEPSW
Experimental: For systemic delivery, the ability to inhibit NLRP3 when the compounds are present within the bloodstream is of great importance. For this reason, the NLRP3 inhibitory activity of a number of compounds in human whole blood was investigated in accordance with the following protocol.
Human whole blood in Li-heparin tubes was obtained from healthy donors from a volunteer donor panel. • 1. Plate out 80 μl of whole blood containing 1 μg/ml of LPS in 96-well, clear bottom cell culture plate (Corning #3585) • 2. Add 10 μl compound (8 points half-log dilution with 10 μM top dose) or vehicle (DMSO 0.1% FAC) to the appropriate wells • 3. Incubate for 3 hrs at 37° C., 5% CO2 • 4. Add 10 μl nigericin (Sigma #N7143) (10 μM FAC) to all wells • 5. Incubate for 1 hr at 37° C., 5% CO2 • 6. At the end of the incubation period, spin plates at 300×g for 5 mins to pellet cells and remove 20 μl of supernatant and add to 96-well v-bottom plates for IL-1β analysis (note: these plates containing the supernatants can be stored at −80° C. to be analysed at a later date) • 7. IL-1β was measured according to the manufacturer protocol (Perkin Elmer-AlphaLisa IL-1 Kit AL220F-5000) • 8. IC50 data is fitted to a non-linear regression equation (log inhibitor vs response-variable slope 4-parameters)

[2] = target: T1, NLRP3; test: THP-1 cells pyroptosis assay (LPS + nigericin, resazurin readout; THP IC50); type: cell-based; set-up: Seed THP-1 cells (25,000 cells/well) containing 1.0 μg/ml LPS in 40 μl of RPMI medium; host or cells: THP-1 cells
Method in brief: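 Human THP-1 cells, 25,000/well in serum-free RPMI with 1 μg/ml LPS, treated 3 hrs at 37° C with compound (8-point half-log, 10 μM top, 0.1% DMSO), then 5 μM nigericin 1 hr. Viability by 100 μM resazurin fluorescence after 1-2 hrs; IC50 by 4-parameter fit.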

| IC50 [1] [nM] | IC50 [2] [nM] | SMILES |
| --- | --- | --- |
| ≤ 5000 | ≤ 1000 | CC(C)c1cc(F)cc(-c2ccccc2)c1NC(=O)NS(=O)(=O)c1cc(CN(C)C)n(C(C)C)n1 [Example 46, 5-((Dimethylamino)methyl)-N-((5-fluoro-3-isopropyl-[1,1′-biphenyl]-2-yl)carbamoyl)-1-isopropyl-1H-pyrazole-3-sulfonamide] |
| ≤ 500 | ≤ 500 | CC(C)c1cc(F)cc(-c2ccnc(C#N)c2)c1NC(=O)NS(=O)(=O)c1cc(CN(C)C)n(C)n1 [Example 48, N-((2-(2-Cyanopyridin-4-yl)-4-fluoro-6-isopropylphenyl)carbamoyl)-5-((dimethylamino)methyl)-1-methyl-1H-pyrazole-3-sulfonamide] |
| ≤ 500 | ≤ 500 | CCn1nc(S(=O)(=O)NC(=O)Nc2c(-c3ccnc(C#N)c3)cc(F)cc2C(C)C)cc1CN(C)C [Example 49, N-((2-(2-Cyanopyridin-4-yl)-4-fluoro-6-isopropylphenyl)carbamoyl)-5-((dimethylamino)methyl)-1-ethyl-1H-pyrazole-3-sulfonamide] |
| ≤ 500 | ≤ 500 | COc1cc(-c2cc(F)cc(C(C)C)c2NC(=O)NS(=O)(=O)c2cc(C3(OC)COC3)n(C)n2)ccn1 [Example 52, N-((4-Fluoro-2-isopropyl-6-(2-methoxypyridin-4-yl)phenyl)carbamoyl)-5-(3-methoxyoxetan-3-yl)-1-methyl-1H-pyrazole-3-sulfonamide] |
| ≤ 5000 | ≤ 500 | COc1cc(-c2cc(F)cc(C(C)C)c2NC(=O)NS(=O)(=O)c2cn(C(C)C)cn2)ccn1 [Example 53, N-((4-Fluoro-2-isopropyl-6-(2-methoxypyridin-4-yl)phenyl)carbamoyl)-1-isopropyl-1H-imidazole-4-sulfonamide] |
| ≤ 500 | ≤ 500 | COc1cc(-c2ccc3c(c2NC(=O)NS(=O)(=O)c2ccn(C(C)C)n2)CCC3)ccn1 [Example 56, 1-Isopropyl-N-((5-(2-methoxypyridin-4-yl)-2,3-dihydro-1H-inden-4-yl)carbamoyl)-1H-pyrazole-3-sulfonamide] |
| ≤ 1000 | ≤ 1000 | CC(C)c1cc(F)cc(-c2cccnc2)c1NC(=O)NS(=O)(=O)c1ccn(CCN(C)C)n1 [Example 57, 1-(2-(Dimethylamino)ethyl)-N-((4-fluoro-2-isopropyl-6-(pyridin-3-yl)phenyl)carbamoyl)-1H-pyrazole-3-sulfonamide] |
| ≤ 500 | ≤ 500 | CCN(CC)CCCS(=O)(=O)NC(=O)Nc1c(-c2cccnc2)cc(F)cc1C(C)C [Example 58, 3-(Diethylamino)-N-((4-fluoro-2-isopropyl-6-(pyridin-3-yl)phenyl)carbamoyl)propane-1-sulfonamide] |
| ≤ 1000 | ≤ 500 | COC1(c2cc(S(=O)(=O)NC(=O)Nc3c(-c4cccnc4)cc(F)c4c3CCC4)nn2C)COC1 [Example 59, N-((7-Fluoro-5-(pyridin-3-yl)-2,3-dihydro-1H-inden-4-yl)carbamoyl)-5-(3-methoxyoxetan-3-yl)-1-methyl-1H-pyrazole-3-sulfonamide] |
| ≤ 5000 | ≤ 500 | CN(C)CCn1ccc(S(=O)(=O)NC(=O)Nc2c(-c3cccnc3)cc(F)c3c2CCC3)n1 [Example 62, 1-(2-(Dimethylamino)ethyl)-N-((7-fluoro-5-(pyridin-3-yl)-2,3-dihydro-1H-inden-4-yl)carbamoyl)-1H-pyrazole-3-sulfonamide] |
| ≤ 500 | ≤ 500 | COc1cc(-c2cc(F)c3c(c2NC(=O)NS(=O)(=O)c2ccn(CCN(C)C)n2)CCC3)ccn1 [Example 63, 1-(2-(Dimethylamino)ethyl)-N-((7-fluoro-5-(2-methoxypyridin-4-yl)-2,3-dihydro-1H-inden-4-yl)carbamoyl)-1H-pyrazole-3-sulfonamide] |
| ≤ 500 | ≤ 500 | CCn1nc(S(=O)(=O)NC(=O)Nc2c(-c3cccnc3)cc(F)c3c2CCC3)cc1CN(C)C [Example 65, 5-((Dimethylamino)methyl)-1-ethyl-N-((7-fluoro-5-(pyridin-3-yl)-2,3-dihydro-1H-inden-4-yl)carbamoyl)-1H-pyrazole-3-sulfonamide] |
| ≤ 500 | ≤ 500 | CCn1nc(S(=O)(=O)NC(=O)Nc2c(-c3ccnc(OC)c3)cc(F)c3c2CCC3)cc1CN(C)C [Example 66, 5-((Dimethylamino)methyl)-1-ethyl-N-((7-fluoro-5-(2-methoxypyridin-4-yl)-2,3-dihydro-1H-inden-4-yl)carbamoyl)-1H-pyrazole-3-sulfonamide] |
| ≤ 1000 | ≤ 500 | CCn1nc(S(=O)(=O)NC(=O)Nc2c(-c3cccc(C#N)c3)ccc3c2CCC3)cc1CN(C)C [Example 68, N-((5-(3-Cyanophenyl)-2,3-dihydro-1H-inden-4-yl)carbamoyl)-5-((dimethylamino)methyl)-1-ethyl-1H-pyrazole-3-sulfonamide] |
| ≤ 500 | ≤ 500 | COc1cc(-c2ccc3c(c2NC(=O)NS(=O)(=O)c2ccc(=O)n(C(C)C)c2)CCC3)ccn1 [Example 70, 1-Isopropyl-N-((5-(2-methoxypyridin-4-yl)-2,3-dihydro-1H-inden-4-yl)carbamoyl)-6-oxo-1,6-dihydropyridine-3-sulfonamide] |
| ≤ 1000 | ≤ 500 | CC(C)n1cc(S(=O)(=O)NC(=O)Nc2c(-c3ccnc(C#N)c3)ccc3c2CCC3)ccc1=O [Example 71, N-((5-(2-Cyanopyridin-4-yl)-2,3-dihydro-1H-inden-4-yl)carbamoyl)-1-isopropyl-6-oxo-1,6-dihydropyridine-3-sulfonamide, sodium salt] |
| ≤ 1000 | ≤ 500 | CC(C)n1cc(S(=O)(=O)NC(=O)Nc2c(-c3ccnc(C#N)c3)ccc3c2CCC3)ncc1=O [Example 72, N-((5-(2-Cyanopyridin-4-yl)-2,3-dihydro-1H-inden-4-yl)carbamoyl)-4-isopropyl-5-oxo-4,5-dihydropyrazine-2-sulfonamide, sodium salt] |
| ≤ 500 | ≤ 500 | COc1cc(-c2ccc3c(c2NC(=O)NS(=O)(=O)c2cn(C(C)C)c(=O)cn2)CCC3)ccn1 [Example 73, 4-Isopropyl-N-((5-(2-methoxypyridin-4-yl)-2,3-dihydro-1H-inden-4-yl)carbamoyl)-5-oxo-4,5-dihydropyrazine-2-sulfonamide, partial ammonium salt] |
| ≤ 500 | ≤ 500 | COc1cc(-c2ccc3c(c2NC(=O)NS(=O)(=O)C2CN(C(C)C)C2)CCC3)ccn1 [Example 76, 1-Isopropyl-N-((5-(2-methoxypyridin-4-yl)-2,3-dihydro-1H-inden-4-yl)carbamoyl)azetidine-3-sulfonamide] |
| ≤ 1000 | ≤ 500 | CC(C)N1CC(S(=O)(=O)NC(=O)Nc2c(-c3ccncc3)cc(F)c3c2CCC3)C1 [Example 77, N-((7-Fluoro-5-(pyridin-4-yl)-2,3-dihydro-1H-inden-4-yl)carbamoyl)-1-isopropylazetidine-3-sulfonamide] |
| ≤ 1000 | ≤ 500 | O=C(Nc1c(-c2ccncc2)cc(F)c2c1CCC2)NS(=O)(=O)C1CN(C2CCC2)C1 [Example 81, 1-Cyclobutyl-N-((7-fluoro-5-(pyridin-4-yl)-2,3-dihydro-1H-inden-4-yl)carbamoyl)azetidine-3-sulfonamide] |
| ≤ 1000 | ≤ 500 | CC(C)n1cc(S(=O)(=O)NC(=O)Nc2c(-c3ccncc3)cc(F)c3c2CCC3)ccc1=O [Example 91, N-((7-Fluoro-5-(pyridin-4-yl)-2,3-dihydro-1H-inden-4-yl)carbamoyl)-1-isopropyl-6-oxo-1,6-dihydropyridine-3-sulfonamide] |
| ≤ 1000 | ≤ 500 | COc1cc(-c2ccc3c(c2NC(=O)NS(=O)(=O)c2cnc(=O)n(C(C)C)c2)CCC3)ccn1 [Example 95, 1-Isopropyl-N-((5-(2-methoxypyridin-4-yl)-2,3-dihydro-1H-inden-4-yl)carbamoyl)-2-oxo-1,2-dihydropyrimidine-5-sulfonamide, sodium salt] |
| ≤ 1000 | ≤ 500 | CN(C)c1cncc(S(=O)(=O)NC(=O)Nc2c(-c3ccncc3)cc(F)c3c2CCC3)n1 [Example 105, 6-(Dimethylamino)-N-((7-fluoro-5-(pyridin-4-yl)-2,3-dihydro-1H-inden-4-yl)carbamoyl)pyrazine-2-sulfonamide] |
| ≤ 5000 | ≤ 500 | CC(C)c1cc(F)cc(-c2ccnc(C#N)c2)c1NC(=O)NS(=O)(=O)c1cnc(N(C)C)cn1 [Example 106, N-((2-(2-Cyanopyridin-4-yl)-4-fluoro-6-isopropylphenyl)carbamoyl)-5-(dimethylamino)pyrazine-2-sulfonamide] |
